Results as given in ChEMBL document CHEMBL5532665 (J Med Chem, 2024).

Experiments:
[1] = molecular target: T1, Mu-type opioid receptor (Homo sapiens, UniProt P35372); assay: Agonist activity at human MOR expressed in CHO-K1 cells co-expressing G-alpha15 by calcium mobilization assay; type: functional, cell-based; conditions: cho-k1
[2] = molecular target: T2, Kappa-type opioid receptor (Homo sapiens, UniProt P41145); assay: Agonist activity at human KOR expressed in CHO-K1 cells co-expressing G-alpha15 by calcium mobilization assay; type: functional, cell-based; conditions: cho-k1
T2 sequence (P41145 whole entry): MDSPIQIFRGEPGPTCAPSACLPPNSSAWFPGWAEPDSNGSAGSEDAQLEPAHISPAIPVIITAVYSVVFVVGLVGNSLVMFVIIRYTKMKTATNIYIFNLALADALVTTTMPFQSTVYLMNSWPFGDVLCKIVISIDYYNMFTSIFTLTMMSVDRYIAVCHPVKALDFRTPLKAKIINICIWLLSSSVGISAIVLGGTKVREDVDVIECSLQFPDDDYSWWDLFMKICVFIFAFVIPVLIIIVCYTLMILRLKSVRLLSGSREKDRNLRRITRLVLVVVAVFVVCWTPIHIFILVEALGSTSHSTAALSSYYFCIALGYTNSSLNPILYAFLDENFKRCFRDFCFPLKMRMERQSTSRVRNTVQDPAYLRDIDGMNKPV

[3] = molecular target: T3, Delta-type opioid receptor (Homo sapiens, UniProt P41143); assay: Agonist activity at human DOR expressed in CHO-K1 cells co-expressing G-alpha15 by calcium mobilization assay; type: functional, cell-based; conditions: cho-k1
T3 sequence (P41143 whole entry): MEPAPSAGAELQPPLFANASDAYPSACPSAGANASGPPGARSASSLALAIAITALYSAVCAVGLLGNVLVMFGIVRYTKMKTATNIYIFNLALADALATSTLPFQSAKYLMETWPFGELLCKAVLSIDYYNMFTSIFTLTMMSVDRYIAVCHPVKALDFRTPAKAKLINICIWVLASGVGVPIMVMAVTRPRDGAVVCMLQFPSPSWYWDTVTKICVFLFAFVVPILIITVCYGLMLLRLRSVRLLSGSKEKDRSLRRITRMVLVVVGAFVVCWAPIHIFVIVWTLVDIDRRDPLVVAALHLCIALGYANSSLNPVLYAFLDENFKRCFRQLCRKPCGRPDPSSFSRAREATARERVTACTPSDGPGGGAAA

[4] = Stability in mouse plasma assessed as half life at 0.01 mol/L measured for 72 hrs by RP-HPLC analysis; type: ADME, cell-free
[5] = Selectivity ratio of ED50 for inhibition of gastrointestinal motility in fasted Kunming mouse model treated subcutaneously to ED50 for antinociceptive activity in Kunming mouse model administered subcutaneously measured for 5 to 15 mins by acetic acid-induced writhing test; type: toxicity; conditions: in vivo, route sc, read-out: Ratio ED50
[6] = Selectivity ratio of ED50 for inhibition of gastrointestinal motility in fasted Kunming mouse model treated subcutaneously to ED50 for antinociceptive activity in Kunming mouse model administered subcutaneously by tail-flick test; type: toxicity; conditions: in vivo, route sc, read-out: Ratio ED50
[7] = Toxicity in Kunming mouse model assessed as effect on locomotor co-ordination at 139 nmol/kg, sc measured for 10 to 40 mins by rotarod test; type: organism-based; conditions: in vivo, time 10-40 min
[8] = Toxicity in Kunming mouse model assessed as effect on locomotor co-ordination at 13.8 nmol/kg, sc measured for 10 to 40 mins by rotarod test; type: organism-based; conditions: in vivo, time 10-40 min
[9] = molecular target: T1, Mu-type opioid receptor; assay: Agonist activity at human MOR expressed in CHO-K1 cells co-expressing G-alpha15 by calcium mobilization assay relative to control; type: functional, cell-based; conditions: filed as agonist
[10] = molecular target: T2, Kappa-type opioid receptor; assay: Agonist activity at human KOR expressed in CHO-K1 cells co-expressing G-alpha15 by calcium mobilization assay relative to control; type: functional, cell-based; conditions: filed as agonist
[11] = molecular target: T3, Delta-type opioid receptor; assay: Agonist activity at human DOR expressed in CHO-K1 cells co-expressing G-alpha15 by calcium mobilization assay relative to control; type: functional, cell-based; conditions: filed as agonist
[12] = tested on: Mus musculus; assay: Antinociceptive activity in Kunming mouse model assessed as latency of tail withdrawal at 138.9 nmol/kg, sc measured for 10 mins by tail-flick test relative to control; type: functional
[13] = tested on: Mus musculus; assay: Antinociceptive activity in Kunming mouse model assessed as latency of tail withdrawal at 138.9 nmol/kg, sc measured for 30 mins by tail-flick test relative to control; type: functional; conditions: 0.5 h
[14] = tested on: Mus musculus; assay: Antinociceptive activity in Kunming mouse model assessed as latency of tail withdrawal at 138.9 nmol/kg, sc measured for 60 mins by tail-flick test relative to control; type: functional; conditions: 1 h
[15] = tested on: Mus musculus; assay: Antinociceptive activity in Kunming mouse model assessed as latency of tail withdrawal at 138.9 nmol/kg, sc measured for 120 mins by tail-flick test relative to control; type: functional; conditions: 2 h

T1 sequence (P35372 whole entry): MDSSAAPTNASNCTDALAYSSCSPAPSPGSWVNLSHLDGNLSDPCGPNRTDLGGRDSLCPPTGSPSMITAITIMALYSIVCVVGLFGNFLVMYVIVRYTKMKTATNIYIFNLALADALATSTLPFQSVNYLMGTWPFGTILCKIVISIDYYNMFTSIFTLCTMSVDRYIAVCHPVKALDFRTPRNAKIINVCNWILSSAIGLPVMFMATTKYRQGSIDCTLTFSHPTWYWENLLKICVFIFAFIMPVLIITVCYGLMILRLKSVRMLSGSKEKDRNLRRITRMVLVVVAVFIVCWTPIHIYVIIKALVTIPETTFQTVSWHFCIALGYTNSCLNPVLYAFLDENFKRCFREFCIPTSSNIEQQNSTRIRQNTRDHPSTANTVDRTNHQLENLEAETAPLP

## CN1C(=O)CNC(=O)[C@H](NC(=O)[C@@H](N)Cc2ccc(O)cc2)CCCCNC(=O)C[C@@H](C(=O)N2CCC[C@@H]2C(N)=O)NC(=O)[C@@H]1Cc1ccccc1
[1]
  EC50: 2.5 nM
[2]
  EC50: 505 nM
[3]
  EC50: 17.5 nM
[4]
  half-life at 0.01 mol/L: 21.1 h
[5]
  selectivity ratio: 13
[6]
  selectivity ratio: 54
[7]
  Activity: Non-Toxic

## NC(=O)[C@H]1CCCN1C(=O)[C@@H]1CC(=O)NCCCC[C@@H](NC(=O)[C@@H](N)Cc2ccc(O)cc2)C(=O)NCC(=O)N[C@@H](Cc2ccc(F)cc2)C(=O)N1
[1]
  EC50: 0.9 nM
[2]
  EC50: 92.2 nM
[3]
  EC50: 0.6 nM
[4]
  half-life at 0.01 mol/L: 53.5 h
[5]
  selectivity ratio: 22
[6]
  selectivity ratio: 55
[8]
  Activity: Non-Toxic

## NC(=O)[C@H]1CCCCN1C(=O)[C@H]1CC(=O)NCCCC[C@@H](NC(=O)[C@@H](N)Cc2ccc(O)cc2)C(=O)NCC(=O)N[C@@H](Cc2ccccc2)C(=O)N1
[1]
  EC50: 4.9 nM
[9]
  Emax: 99.6%
[2]
  EC50: 2280 nM
[10]
  Emax: 68.7%
[3]
  EC50: 0.2 nM
[11]
  Emax: 95.4%
[12]
  MPE: 59.6%
[13]
  MPE: 86.8%
[14]
  MPE: 61.4%
[15]
  MPE: 26.7%
